Patent US6858574B2, “Process for making perfume containing surfactant compositions having perfume burst when diluted” (Unilever Home & Personal Care USA, division of Conopco, Inc., priority 2002, dated 2005)
Like-named read-outs stand apart in the source and are kept apart here. Marks after values point to notes of the source that are not given here.

Tests used:
[1] = Fragrance burst (perfume headspace) of single perfumes in 5% sodium laurate shower product diluted through the CMC; type: physicochemical; details: diluted through the CMC (FIG. 3)
Protocol: It is precisely this “burst” or increase in headspace (e.g., from start of dilution up until CMC) and methods for determining in what compositions it will occur that is the basis of the subject invention.
Several different fragrance molecules were tested experimentally to validate the theoretical predictions. Limonene, p-cymene, α-pinene, tetrahydrolinolool, α-ionone, γ-methyl ionone, benzyl acetate and 2-phenoxylethanol were tested in a 5% sodium laurate shower product and diluted a number of times through the CMC (FIG. 3).

[2] = GC headspace vs dilution of components of a perfume mixture in 5 wt. % sodium laurate formulation; type: physicochemical; details: twelve-component perfume mixture, 5 wt. % sodium laurate (FIG. 9)
Protocol: A typical fully formulated perfume used in a commercial product, e.g., personal wash formulation, usually is a multi-component composition in which the properties of each perfume component can vary dramatically. A typical perfume mixture in a 5 wt. % sodium laurate formulation was tested for its “perfume burst” behaviour upon dilution. […] Each component has a unique dilution curve (GC headspace vs. dilution factor) governed by the factors (hydrophobicity, volatility, etc) discussed previously.

[3] = cited from earlier work
[4] = Critical micellization concentration (CMC) of surfactants; type: physicochemical
From the text: As noted, the perfume burst is affected not only by the perfume properties, but also by properties of the formulation in which the perfume is found. Thus, the number and type of surfactant micelles found in a surfactant solution also has an effect. […] The critical micellization concentration is defined as the surfactant concentration at which micelles begin to form from unassociated surfactant monomers (M. J. Rosen, Surfactants and Interfacial Phenomena, 2nd Ed., 1989). Conversely, in a surfactant with low critical micelle concentration (e.g., one where micelles do form easily or, stated differently, don't break apart as readily once formed), a perfume, being generally more hydrophobic, tends to stay in the surfactant more readily. As a result, the perfume will tend not to “burst” (increase perfume headspace) as readily and, to achieve more headspace, more dilution may be required. The CMC of the surfactant system also affects “perfume burst”. Thus, for example, a surfactant system of relatively low CMC (e.g., sodium lauryl ether sulfate, also known as SLES) lowers the PBI and can greatly reduce the expected “perfume burst” on dilution. By contrast, surfactant system of relatively higher CMC (e.g., sodium laurate compared to SLES) would raise PBI and can thus increase “perfume burst” on dilution.

[5] = Fragrance burst in shower liquids with surfactants of different CMC; type: physicochemical; details: 5% sodium laureth sulfate (CMC=0.0011) vs 5% sodium laurate (CMC=0.005) (FIG. 8)
Protocol: Limonene and γ-Methyl Ionone were tested in two different shower liquid samples. One product was formulated with 5% sodium laurate (CMC=0.005 wt/wt) and the second with 5% sodium laureth sulfate (CMC=0.0011 wt/wt) (FIG. 8).

[6] = Fragrance burst in shower liquids with different surfactant concentrations; type: physicochemical; details: sodium laurate at 5, 10, 15 (20) wt. % (FIG. 6)

For `OCCOc1ccccc1` [2-Phenoxyethanol], the fragrance burst [1] was “no fragrance burst at all”.

With `CC(=O)OCc1ccccc1` [Benzyl Acetate] the “dilution behaviour of component (GC headspace)” value [2] was “perfume headspaces decrease upon dilution” and the fragrance burst [1] was “no fragrance burst at all”.

For `CCCCCCCCCCCCOC(=O)CCS(=O)(=O)[O-].[Na+]` [C12H25OOC(CH2)2SO3^−Na^+ (SCI)], the “CMC (wt./wt.)” value ([3]; 30° C.) is given as 0.00076* (30° C.) wt./wt.

In the case of `CCCCCCCC(=O)NCCC[N+](C)(C)CC(=O)[O-]` [Caprylamidopropyl betaine], the “CMC (wt./wt.)” value [4] was 0.00032 wt./wt.

With `C=C(C)[C@H]1CC=C(C)CC1` [Limonene] the “effect of surfactant CMC on fragrance burst” value [5] was “lower overall fragrance burst”, the fragrance burst [1] was ~95% and the “effect of surfactant concentration on fragrance burst” value (“effect of surfactant concentration” below) [6] was “maximum fragrance burst is reached with fewer dilutions in the 5% soap product”.

In the case of `CC(C)[C@@H]1CC[C@@H](C)CC1=O` [Menthone], the “effect of surfactant concentration” value [6] was “maximum fragrance burst is reached with fewer dilutions in the 5% soap product”.

In the case of `CCCCCCCCCCCC(=O)[O-].[Na+]` [Sodium laurate], the CMC ([3]; Example 9) is listed as 0.005 wt/wt and the CMC ([3]; Example 11) is listed as 0.5 wt. %.

In the case of `CCC(C)(O)CCCC(C)C` (centres unmarked) [Tetrahydrolinolool], the fragrance burst [1] was 320%.

`Cc1ccc(C(C)C)cc1` [p-Cymene] showed a fragrance burst [1] of 120%.

`CC(=O)/C=C/C1C(C)=CCCC1(C)C` (stereo not drawn) [α-ionone] showed a fragrance burst [1] of 430%.

With `CC1=CCC2CC1C2(C)C` (stereo not drawn) [α-pinene] the fragrance burst [1] was 50%.

With `CC(=O)/C(C)=C/C1C(C)=CCCC1(C)C` (centres unmarked) [γ-methyl ionone] the “effect of surfactant CMC on fragrance burst” value [5] was “lower overall fragrance burst”, the “dilution behaviour of component (GC headspace)” value [2] was “as high as seven times” and the fragrance burst [1] was 460%. For the same molecule, the “effect of surfactant concentration” value [6] was “maximum fragrance burst is reached with fewer dilutions in the 5% soap product”.

In the case of Sodium laureth sulfonate (2EO), the “CMC (wt./wt.)” value ([3]; 50° C.) is listed as 0.0011*** wt./wt, the CMC ([3]; Example 9) is listed as 0.0011 wt/wt and the CMC ([3]; Example 11) is listed as 0.1 wt. %.

For Sodium laureth sulfonate (3EO), the “CMC (wt./wt.)” value ([3]; 50° C.) is given as 0.00084*** wt./wt.
